Data as given in ChEMBL document CHEMBL4346705, “(±)-trans-Dihydronarciclasine and (±)-trans-dihydrolycoricidine analogues modified in their ring A: Evaluation of their anticancer activity and a SAR study” (2019).

Columns and labels:
Assay type in all cases: functional
CCRF-CEM = assay: Antiproliferative activity against human CCRF-CEM cells assessed as cell viability at 10^-5 M incubated for 48 hrs by sulforhodamine B assay relative to control; settings: read-out: Activity
K562 = assay: Antiproliferative activity against human K562 cells assessed as cell viability at 10^-5 M incubated for 48 hrs by sulforhodamine B assay relative to control; settings: K562, 48 h, read-out: Activity
RPMI-8226 = assay: Antiproliferative activity against human RPMI8226 cells assessed as cell viability at 10^-5 M incubated for 48 hrs by sulforhodamine B assay relative to control; settings: RPMI-8226, 48 h, read-out: Activity
SR = assay: Antiproliferative activity against human SR cells assessed as cell viability at 10^-5 M incubated for 48 hrs by sulforhodamine B assay relative to control; settings: read-out: Activity
EKVX = assay: Antiproliferative activity against human EKVX cells assessed as cell viability at 10^-5 M incubated for 48 hrs by sulforhodamine B assay relative to control; settings: read-out: Activity
HOP-92 = assay: Antiproliferative activity against human HOP92 cells assessed as cell viability at 10^-5 M incubated for 48 hrs by sulforhodamine B assay relative to control; settings: HOP-92, 48 h, read-out: Activity
NCI-H226 = assay: Antiproliferative activity against human NCI-H226 cells assessed as cell viability at 10^-5 M incubated for 48 hrs by sulforhodamine B assay relative to control; settings: NCI-H226, 48 h, read-out: Activity
NCI-H23 = assay: Antiproliferative activity against human NCI-H23 cells assessed as cell viability at 10^-5 M incubated for 48 hrs by sulforhodamine B assay relative to control; settings: NCI-H23, 48 h, read-out: Activity
NCI-H322M = assay: Antiproliferative activity against human NCI-H322M cells assessed as cell viability at 10^-5 M incubated for 48 hrs by sulforhodamine B assay relative to control; settings: read-out: Activity
NCI-H522 = assay: Antiproliferative activity against human NCI-H522 cells assessed as cell viability at 10^-5 M incubated for 48 hrs by sulforhodamine B assay relative to control; settings: NCI-H522, 48 h, read-out: Activity
HCT-116 = assay: Antiproliferative activity against human HCT116 cells assessed as cell viability at 10^-5 M incubated for 48 hrs by sulforhodamine B assay relative to control; settings: HCT-116, 48 h, read-out: Activity
HT-29 = assay: Antiproliferative activity against human HT-29 cells assessed as cell viability at 10^-5 M incubated for 48 hrs by sulforhodamine B assay relative to control; settings: HT-29, 48 h, read-out: Activity
SF-295 = assay: Antiproliferative activity against human SF295 cells assessed as cell viability at 10^-5 M incubated for 48 hrs by sulforhodamine B assay relative to control; settings: SF-295, 48 h, read-out: Activity
SF-539 = assay: Antiproliferative activity against human SF539 cells assessed as cell viability at 10^-5 M incubated for 48 hrs by sulforhodamine B assay relative to control; settings: SF-539, 48 h, read-out: Activity
U-251 = assay: Antiproliferative activity against human U251 cells assessed as cell viability at 10^-5 M incubated for 48 hrs by sulforhodamine B assay relative to control; settings: U-251, 48 h, read-out: Activity
LOX IMVI = assay: Antiproliferative activity against human LOXIMVI cells assessed as cell viability at 10^-5 M incubated for 48 hrs by sulforhodamine B assay relative to control; settings: read-out: Activity
SK-MEL-2 = assay: Antiproliferative activity against human SK-MEL-2 cells assessed as cell viability at 10^-5 M incubated for 48 hrs by sulforhodamine B assay relative to control; settings: SK-MEL-2, 48 h, read-out: Activity
SK-MEL-5 = assay: Antiproliferative activity against human SK-MEL-5 cells assessed as cell viability at 10^-5 M incubated for 48 hrs by sulforhodamine B assay relative to control; settings: SK-MEL-5, 48 h, read-out: Activity
UACC-257 = assay: Antiproliferative activity against human UACC257 cells assessed as cell viability at 10^-5 M incubated for 48 hrs by sulforhodamine B assay relative to control; settings: UACC-257, 48 h, read-out: Activity
IGROV-1 = assay: Antiproliferative activity against human IGROV1 cells assessed as cell viability at 10^-5 M incubated for 48 hrs by sulforhodamine B assay relative to control; settings: IGROV-1, 48 h, read-out: Activity
OVCAR-4 = assay: Antiproliferative activity against human OVCAR4 cells assessed as cell viability at 10^-5 M incubated for 48 hrs by sulforhodamine B assay relative to control; settings: OVCAR-4, 48 h, read-out: Activity
OVCAR-8 = assay: Antiproliferative activity against human OVCAR8 cells assessed as cell viability at 10^-5 M incubated for 48 hrs by sulforhodamine B assay relative to control; settings: OVCAR-8, 48 h, read-out: Activity
786-0 = assay: Antiproliferative activity against human 786-0 cells assessed as cell viability at 10^-5 M incubated for 48 hrs by sulforhodamine B assay relative to control; settings: 786-0, 48 h, read-out: Activity
ACHN = assay: Antiproliferative activity against human ACHN cells assessed as cell viability at 10^-5 M incubated for 48 hrs by sulforhodamine B assay relative to control; settings: read-out: Activity
CAKI-1 = assay: Antiproliferative activity against human Caki1 cells assessed as cell viability at 10^-5 M incubated for 48 hrs by sulforhodamine B assay relative to control; settings: CAKI-1, 48 h, read-out: Activity
SN12C = assay: Antiproliferative activity against human SN12C cells assessed as cell viability at 10^-5 M incubated for 48 hrs by sulforhodamine B assay relative to control; settings: read-out: Activity
TK-10 = assay: Antiproliferative activity against human TK10 cells assessed as cell viability at 10^-5 M incubated for 48 hrs by sulforhodamine B assay relative to control; settings: TK-10, 48 h, read-out: Activity
UO-31 = assay: Antiproliferative activity against human UO31 cells assessed as cell viability at 10^-5 M incubated for 48 hrs by sulforhodamine B assay relative to control; settings: UO-31, 48 h, read-out: Activity
MCF7 = assay: Antiproliferative activity against human MCF7 cells assessed as cell viability at 10^-5 M incubated for 48 hrs by sulforhodamine B assay relative to control; settings: MCF7, 48 h, read-out: Activity
MDA-MB-231 = assay: Antiproliferative activity against human MDA-MB-231 cells assessed as cell viability at 10^-5 M incubated for 48 hrs by sulforhodamine B assay relative to control; settings: MDA-MB-231, 48 h, read-out: Activity
Hs-578T = assay: Antiproliferative activity against human Hs 578T cells assessed as cell viability at 10^-5 M incubated for 48 hrs by sulforhodamine B assay relative to control; settings: read-out: Activity
T47D = assay: Antiproliferative activity against human T47D cells assessed as cell viability at 10^-5 M incubated for 48 hrs by sulforhodamine B assay relative to control; settings: read-out: Activity

Row | Compound | viability at 10 µM (CCRF-CEM) | viability at 10 µM (K562) | viability at 10 µM (RPMI-8226) | viability at 10 µM (SR) | viability at 10 µM (EKVX) | viability at 10 µM (HOP-92) | viability at 10 µM (NCI-H226) | viability at 10 µM (NCI-H23) | viability at 10 µM (NCI-H322M) | viability at 10 µM (NCI-H522) | viability at 10 µM (HCT-116) | viability at 10 µM (HT-29) | viability at 10 µM (SF-295) | viability at 10 µM (SF-539) | viability at 10 µM (U-251) | viability at 10 µM (LOX IMVI) | viability at 10 µM (SK-MEL-2) | viability at 10 µM (SK-MEL-5) | viability at 10 µM (UACC-257) | viability at 10 µM (IGROV-1) | other results
1 | COc1cc2c(c(OC)c1OC)C(=O)NC1C2CC(O)C(O)C1O (racemic) | 104% | 96.6% | 102% | 95.6% | 103% | 91.4% | 102% | 106% | 104% | 97.7% | 98.9% | 107% | 98.3% | 100% | 98.9% | 97.7% | 117% | 104% | 100% | 111% | viability at 10 µM (OVCAR-4): 107%; viability at 10 µM (OVCAR-8): 97.3%; viability at 10 µM (786-0): 94.9%; viability at 10 µM (ACHN): 99.7%; viability at 10 µM (CAKI-1): 94.1%; viability at 10 µM (SN12C): 104%; viability at 10 µM (TK-10): 98.5%; viability at 10 µM (UO-31): 87.1%; viability at 10 µM (MCF7): 96.1%; viability at 10 µM (MDA-MB-231): 106%; viability at 10 µM (Hs-578T): 108%; viability at 10 µM (T47D): 100%
2 | COc1cc2c(c3c1OCCO3)C(=O)NC1C2CC(O)C(O)C1O (racemic) | 103% | 106% | 100% | 97.1% | 103% | 77.7% | 95.7% | 102% | 97.3% | 93% | 99.6% | 102% | 104% | 105% | 100% | 101% | 110% | 101% | 97.5% | 107% | viability at 10 µM (OVCAR-4): 108%; viability at 10 µM (OVCAR-8): 95.2%; viability at 10 µM (786-0): 95.6%; viability at 10 µM (ACHN): 108%; viability at 10 µM (CAKI-1): 93.4%; viability at 10 µM (SN12C): 99.8%; viability at 10 µM (TK-10): 98%; viability at 10 µM (UO-31): 89.8%; viability at 10 µM (MCF7): 97.3%; viability at 10 µM (MDA-MB-231): 103%; viability at 10 µM (Hs-578T): 99.8%; viability at 10 µM (T47D): 87.9%
3 | CCOc1cc2c(c(OC)c1OCC)C(=O)NC1C2CC(O)C(O)C1O (racemic) | 96.9% | 98.3% | 101% | 95.8% | 99.1% | 86.4% | 99.1% | 95.8% | 106% | 93.3% | 95.6% | 98.3% | 102% | 102% | 95.4% | 98.4% | 110% | 102% | 98.2% | 112% | viability at 10 µM (OVCAR-4): 105%; viability at 10 µM (OVCAR-8): 99.8%; viability at 10 µM (786-0): 96.1%; viability at 10 µM (ACHN): 104%; viability at 10 µM (CAKI-1): 90.1%; viability at 10 µM (SN12C): 104%; viability at 10 µM (TK-10): 100%; viability at 10 µM (UO-31): 96.1%; viability at 10 µM (MCF7): 97.6%; viability at 10 µM (MDA-MB-231): 107%; viability at 10 µM (Hs-578T): 99.8%; viability at 10 µM (T47D): 96.3%
4 | CCOc1cc2c(c(OCC)c1OCC)C(=O)NC1C2CC(O)C(O)C1O (racemic) | 99.1% | 98.4% | 102% | 96.2% | 97.3% | 82.8% | 96.3% | 101% | 97.8% | 89.2% | 101% | 104% | 100% | 97% | 101% | 98.7% | 99.2% | 107% | 101% | 108% | viability at 10 µM (OVCAR-4): 105%; viability at 10 µM (OVCAR-8): 102%; viability at 10 µM (786-0): 97.9%; viability at 10 µM (ACHN): 105%; viability at 10 µM (CAKI-1): 94.2%; viability at 10 µM (SN12C): 108%; viability at 10 µM (TK-10): 98.5%; viability at 10 µM (UO-31): 88.4%; viability at 10 µM (MCF7): 95.6%; viability at 10 µM (MDA-MB-231): 121%; viability at 10 µM (Hs-578T): 99.1%; viability at 10 µM (T47D): 100%
